Source: patent US20130189203A1, “COSMETIC ADDITIVES CONTAINING ALKALI PHOSPHATES” (BK Giulini GmbH, priority 2012, published 2013)

Assay: complex formation with iron ions in sun protection formulation, colour measurement (Minolta Chroma-Meter CR 300)
Details: formulation + 0.01% iron (III) chloride hexahydrate + 0.09% additive, after 6 weeks
Experimental: As a base formulation, the formulation of a sun protection agent with butyl methoxy dibenzoylmethane was used. This UVA filter forms an intensive red complex with traces of irons The complexing effect was studied using the following formulation:
The aqueous phase of the formulation was prepared by dissolving Phase B in Phase A until a homogeneous phase resulted. This was brought to a temperature of ca. 75-80° C. Phase C was prepared by dissolving Cosmedia Gel CC in the rest of Phase C until a homogeneous phase resulted. This was heated to ca. 75-80° C., followed by addition of phase D, and then Phase E was stirred in. The mixture of phases C, D, and E was added to the aqueous phase, and this mixture was stirred 5 min at 750 rpm. Then the formulation was cooled to room temperature while stirring at 200 rpm, during which at ca. 60° C. the mixture was homogenised 1 min at 11000 rpm with the aid of an Ultra Turrax stirrer.
The following additives were added to the described formulation:
The respective amount of iron (III) chloride hexahydrate, Carephos N (linear alkali polyphosphate), disodium EDTA, Utanit AF (acid diphosphate, for comparison), and [sic] Phoskadent Pyro (alkali diphosphate, for comparison) was worked into the aqueous phase and was removed from the water content [sic].
The evaluation was carried out by colour measurement. Using a Minolta Chroma-Meter CR 300, the colour status of the formulas was determined after 6 weeks. The measurements yielded values which allowed an objective comparison of the individual formulations. The measurements determined 3 values: L, a, and b. The L value describes lightness and darkness, with 0 representing perfect black and 100 perfect white. The a value describes the red-green value, and the b value describes the yellow-blue value. There are different prefix signs on the a and b values, in accordance with the present CIE Lab system, according to which no colour can be simultaneously reddish and greenish or simultaneously yellowish and bluish. Thus, −a represents green, +a represents red, −b represents blue, and +b represents yellow. […]

- L value (difference to white standard): −26.44
- a value (red-green; difference to white standard): +5.18
- b value (yellow-blue; difference to white standard): +4.10
SMILES: O=C([O-])CN(CCN(CC(=O)[O-])CC(=O)O)CC(=O)O.[Na+].[Na+] [Disodium EDTA]
